Results published in patent publication US9115092B2, “Substituted quinazoline and pyrido-pyrimidine derivatives” (Asana Biosciences, LLC, priority 2010, dated 2015).
Each block holds one molecule with its values, some of them ahead of it.

What was measured:
[1] = target: T1, PI3Kα (wild-type), P110/P85α (Homo sapiens, UniProt P42336); assay: PI3 Kinase TR-FRET assay, PI3Kα (wild-type); format: biochemical
T1 construct: made in house; host or cells: SF9 insect cells
Method in brief: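 TR-FRET read-out of PIP3 formation via biotin-PIP3 displacement (665/615 nm ratio) gave IC50 curves. Enzyme: 5 ng wild-type P110/P85α from Sf9 cells, 60 min RT with compound and PIP2 (MgCl2 40 mM, DTT 5 mM), then 30 min RT kinase reaction at 10 μM ATP and 10 μM PIP2.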

mTOR kinase = target: T2, mTOR kinase (Homo sapiens, UniProt P42345); assay: mTOR kinase TR-FRET assay; format: biochemical; settings: read-out: mTO R
T2 construct: purchased Millipore, USA
Method in brief: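 TR-FRET read-out (340 nm excitation, 615/665 nm emission) of Thr389 phosphorylation of a ULight-labeled p70 S6K peptide (50 nM) by mTOR, 20 μM ATP, 60 min room temperature after 60 min compound preincubation. Buffer HEPES pH 7.5 with MnCl2, EGTA; IC50 by sigmoidal dose-response.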

T1 sequence (P42336 whole entry): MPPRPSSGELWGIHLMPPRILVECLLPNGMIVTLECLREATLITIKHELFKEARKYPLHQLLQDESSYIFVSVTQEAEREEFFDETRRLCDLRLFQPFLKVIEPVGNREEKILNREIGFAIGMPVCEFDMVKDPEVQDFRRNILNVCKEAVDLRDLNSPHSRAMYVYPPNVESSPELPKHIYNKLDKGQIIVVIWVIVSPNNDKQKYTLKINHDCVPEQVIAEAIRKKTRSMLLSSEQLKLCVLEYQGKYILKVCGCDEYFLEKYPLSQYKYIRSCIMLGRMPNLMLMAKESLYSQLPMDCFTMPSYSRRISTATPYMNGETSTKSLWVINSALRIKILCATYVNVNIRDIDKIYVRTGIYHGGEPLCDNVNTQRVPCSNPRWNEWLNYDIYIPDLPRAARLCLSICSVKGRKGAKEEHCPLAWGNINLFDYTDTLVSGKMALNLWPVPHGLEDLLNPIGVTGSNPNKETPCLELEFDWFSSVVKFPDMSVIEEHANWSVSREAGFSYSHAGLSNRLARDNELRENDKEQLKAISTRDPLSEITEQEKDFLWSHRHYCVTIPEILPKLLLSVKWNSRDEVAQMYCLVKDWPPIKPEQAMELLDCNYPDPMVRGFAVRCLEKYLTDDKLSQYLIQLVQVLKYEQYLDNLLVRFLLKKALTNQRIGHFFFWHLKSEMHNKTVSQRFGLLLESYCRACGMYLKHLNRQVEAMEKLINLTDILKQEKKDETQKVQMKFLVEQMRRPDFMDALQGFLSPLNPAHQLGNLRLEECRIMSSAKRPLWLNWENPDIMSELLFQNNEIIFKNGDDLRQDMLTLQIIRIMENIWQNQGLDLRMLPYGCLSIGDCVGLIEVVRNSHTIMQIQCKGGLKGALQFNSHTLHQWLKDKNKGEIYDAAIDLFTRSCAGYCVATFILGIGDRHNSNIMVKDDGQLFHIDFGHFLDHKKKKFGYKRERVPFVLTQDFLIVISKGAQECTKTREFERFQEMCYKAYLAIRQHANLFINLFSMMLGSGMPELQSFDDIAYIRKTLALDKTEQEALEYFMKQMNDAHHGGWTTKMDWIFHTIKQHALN
T1 sequence (P27986 whole entry partner): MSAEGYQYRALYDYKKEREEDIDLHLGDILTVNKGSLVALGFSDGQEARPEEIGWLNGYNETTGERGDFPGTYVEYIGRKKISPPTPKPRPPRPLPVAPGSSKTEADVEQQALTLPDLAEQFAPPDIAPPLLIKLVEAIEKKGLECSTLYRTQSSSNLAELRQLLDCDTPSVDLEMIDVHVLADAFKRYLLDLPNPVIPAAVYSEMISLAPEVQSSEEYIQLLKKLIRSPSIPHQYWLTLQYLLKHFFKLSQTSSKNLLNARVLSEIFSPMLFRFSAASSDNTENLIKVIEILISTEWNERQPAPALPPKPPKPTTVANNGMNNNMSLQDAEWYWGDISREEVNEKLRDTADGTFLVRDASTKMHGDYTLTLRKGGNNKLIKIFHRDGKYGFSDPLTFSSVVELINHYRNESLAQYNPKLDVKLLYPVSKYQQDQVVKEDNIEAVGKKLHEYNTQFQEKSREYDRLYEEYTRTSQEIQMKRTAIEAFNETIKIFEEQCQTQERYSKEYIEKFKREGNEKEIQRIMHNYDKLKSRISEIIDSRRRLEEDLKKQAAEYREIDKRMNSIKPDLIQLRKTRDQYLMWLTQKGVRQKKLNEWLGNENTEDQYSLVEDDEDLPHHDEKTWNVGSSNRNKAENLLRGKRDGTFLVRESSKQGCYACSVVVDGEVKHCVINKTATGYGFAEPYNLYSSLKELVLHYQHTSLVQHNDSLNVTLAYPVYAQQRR

- IC50 [1]: < 50 nM
- IC50 (mTOR kinase): < 50 nM
Structure (SMILES): CN(C)C(=O)c1ccc(NC(=O)Nc2ccc(-c3nc(N4CCOCC4)c4ncc(-c5cccnc5F)cc4n3)cc2)cc1F [Example 248, 2-fluoro-4-(3-(4-(7-(2-fluoropyridin-3-yl)-4-morpholino-pyrido[3,2-d]pyrimidin-2-yl)phenyl)ureido)-N,N-dimethyl-benzamide]

- IC50 [1]: < 50 nM
- IC50 (mTOR kinase): < 50 nM
Structure (SMILES): CN(C)C(=O)c1ccc(NC(=O)Nc2ccc(-c3nc(N4CCOCC4)c4ncc(-c5cccnc5)cc4n3)c(F)c2)cc1 [Example 261, 4-(3-(3-fluoro-4-(4-morpholino-7-(pyridin-3-yl)pyrido[3,2-d]pyrimidin-2-yl)phenyl)ureido)-N,N-dimethyl-benzamide]

- IC50 [1]: < 50 nM
- IC50 (mTOR kinase): < 50 nM
Structure (SMILES): CN(C)C(=O)c1ccc(NC(=O)Nc2ccc(-c3nc(N4CCOCC4)c4ncc(-c5cncnc5)cc4n3)cc2)cc1F [Example 262, 2-fluoro-N,N-dimethyl-4-(3-(4-(4-morpholino-7-(pyrimidin-5-yl)pyrido[3,2-d]pyrimidin-2-yl)phenyl)ureido)-benzamide]

- IC50 [1]: < 50 nM
- IC50 (mTOR kinase): < 50 nM
Structure (SMILES): COc1ncc(-c2cnc3c(N4CCOCC4)nc(-c4ccc(NC(=O)Nc5ccc(C(=O)N(C)C)cc5)cc4F)nc3c2)cn1 [Example 263, 4-(3-(3-fluoro-4-(7-(2-methoxypyrimidin-5-yl)-4-morpholino-pyrido[3,2-d]pyrimidin-2-yl)phenyl)ureido)-N,N-dimethyl-benzamide]

- IC50 [1]: < 50 nM
- IC50 (mTOR kinase): < 50 nM
Structure (SMILES): CN(C)C(=O)c1ccc(NC(=O)Nc2ccc(-c3nc(N4CCOCC4)c4ncc(-c5cccnc5)cc4n3)cc2)cc1F [Example 264, 2-fluoro-N,N-dimethyl-4-(3-(4-(4-morpholino-7-(pyridin-3-yl)pyrido[3,2-d]pyrimidin-2-yl)phenyl)ureido)-benzamide]

- IC50 [1]: 50 to 200 nM
- IC50 (mTOR kinase): 50 to 200 nM
Structure (SMILES): Cc1ccc(-c2ccc3c(N4CCOCC4)nc(-c4ccc(NC(=O)Nc5ccc(C(=O)N(C)C)c(F)c5)cc4)nc3c2)o1 [Example 266, 2-fluoro-N,N-dimethyl-4-(3-(4-(7-(5-methylfuran-2-yl)-4-morpholino-quinazolin-2-yl)phenyl)ureido)-benzamide]

- IC50 [1]: < 50 nM
- IC50 (mTOR kinase): < 50 nM
Structure (SMILES): Cc1ccc(-c2ccc3c(N4CCOCC4)nc(-c4ccc(NC(=O)Nc5ccc(C(=O)N(C)C)cc5)cc4F)nc3c2)cn1 [Example 271, 4-(3-(3-fluoro-4-(7-(6-methylpyridin-3-yl)-4-morpholino-quinazolin-2-yl)phenyl)ureido)-N,N-dimethyl-benzamide]

- IC50 [1]: < 50 nM
- IC50 (mTOR kinase): < 50 nM
Structure (SMILES): CN(C)C(=O)c1ccc(NC(=O)Nc2ccc(-c3nc(N4CCOCC4)c4ncc(-c5cnn(C)c5)cc4n3)cc2)cc1F [Example 273, 2-fluoro-N,N-dimethyl-4-(3-(4-(7-(1-methyl-1H-pyrazol-4-yl)-4-morpholino-pyrido[3,2-d]pyrimidin-2-yl)phenyl)ureido)-benzamide]

- IC50 [1]: < 50 nM
- IC50 (mTOR kinase): < 50 nM
Structure (SMILES): CN(C)C(=O)c1ccc(NC(=O)Nc2ccc(-c3nc(N4CCOCC4)c4ccc(-c5ccc(CO)o5)cc4n3)cc2)cc1F [Example 278, 2-fluoro-4-(3-(4-(7-(5-(hydroxymethyl)furan-2-yl)-4-morpholino-quinazolin-2-yl)phenyl)ureido)-N,N-dimethyl-benzamide]

Continued, molecule first:

Structure (SMILES): CN(C)CCN(C)C(=O)c1ccc(NC(=O)Nc2ccc(-c3nc(N4CCOCC4)c4ccc(-c5ccco5)cc4n3)cc2)cc1 [Example 236, N-(2-(dimethylamino)ethyl)-4-(3-(4-(7-(furan-2-yl)-4-morpholino-quinazolin-2-yl)phenyl)ureido)-N-methyl-benzamide]
- IC50 [1]: < 50 nM
- IC50 (mTOR kinase): < 50 nM

Structure (SMILES): Cc1ccc(-c2ccc3c(N4CCOCC4)nc(-c4ccc(NC(=O)Nc5ccc(C(=O)N(C)C)cc5)cc4F)nc3c2)o1 [Example 239, 4-(3-(3-fluoro-4-(7-(5-methylfuran-2-yl)-4-morpholino-quinazolin-2-yl)phenyl)ureido)-N,N-dimethyl-benzamide]
- IC50 [1]: 50 to 200 nM
- IC50 (mTOR kinase): 50 to 200 nM

Structure (SMILES): CN(C)C(=O)c1ccc(NC(=O)Nc2ccc(-c3nc(N4CCOCC4)c4ccc(-c5cnn(C)c5)cc4n3)c(F)c2)cc1 [Example 249, 4-(3-(3-fluoro-4-(7-(1-methyl-1H-pyrazol-4-yl)-4-morpholino-quinazolin-2-yl)phenyl)ureido)-N,N-dimethyl-benzamide]
- IC50 [1]: 50 to 200 nM
- IC50 (mTOR kinase): < 50 nM

Structure (SMILES): CN(C)C(=O)c1ccc(NC(=O)Nc2ccc(-c3nc(N4CCOCC4)c4ccc(-c5cncnc5)cc4n3)c(F)c2)cn1 [Example 251, 5-(3-(3-fluoro-4-(4-morpholino-7-(pyrimidin-5-yl)quinazolin-2-yl)phenyl)ureido)-N,N-dimethylpicolinamide]
- IC50 [1]: 201 to 10000 nM
- IC50 (mTOR kinase): < 50 nM

Structure (SMILES): Cc1noc(C)c1-c1ccc2c(N3CCOCC3)nc(-c3ccc(NC(=O)Nc4ccc(C(=O)N(C)C)cc4)cc3F)nc2c1 [Example 252, 4-(3-(4-(7-(3,5-dimethylisoxazol-4-yl)-4-morpholino-quinazolin-2-yl)-3-fluorophenyl)ureido)-N,N-dimethyl-benzamide]
- IC50 [1]: 50 to 200 nM
- IC50 (mTOR kinase): 50 to 200 nM

Structure (SMILES): CC1CN(c2nc(-c3ccc(NC(=O)Nc4ccc(C(=O)N(C)C)cc4)cc3F)nc3cc(-c4cncnc4)ccc23)CCO1 (stereo not shown) [Example 254, 4-(3-(3-fluoro-4-(4-(2-methylmorpholino)-7-(pyrimidin-5-yl)quinazolin-2-yl)phenyl)ureido)-N,N-dimethyl-benzamide]
- IC50 [1]: 201 to 10000 nM
- IC50 (mTOR kinase): 50 to 200 nM

Structure (SMILES): COc1ccc(-c2ccc3c(N4CCOCC4)nc(-c4ccc(NC(=O)Nc5ccc(C(=O)N(C)C)cc5)cc4F)nc3c2)cn1 [Example 258, 4-(3-(3-fluoro-4-(7-(6-methoxypyridin-3-yl)-4-morpholino-quinazolin-2-yl)phenyl)ureido)-N,N-dimethyl-benzamide]
- IC50 [1]: 50 to 200 nM
- IC50 (mTOR kinase): 50 to 200 nM

Structure (SMILES): Cc1nn(C)c(C)c1-c1ccc2c(N3CCOCC3)nc(-c3ccc(NC(=O)Nc4ccc(C(=O)N(C)C)cc4)cc3F)nc2c1 [Example 269, 4-(3-(3-fluoro-4-(4-morpholino-7-(1,3,5-trimethyl-1H-pyrazol-4-yl)quinazolin-2-yl)phenyl)ureido)-N,N-dimethyl-benzamide]
- IC50 [1]: < 50 nM
- IC50 (mTOR kinase): < 50 nM

Structure (SMILES): COc1ncccc1-c1ccc2c(N3CCOCC3)nc(-c3ccc(NC(=O)Nc4ccc(C(=O)N(C)C)cc4)cc3F)nc2c1 [Example 270, 4-(3-(3-fluoro-4-(7-(2-methoxypyridin-3-yl)-4-morpholino-quinazolin-2-yl)phenyl)ureido)-N,N-dimethyl-benzamide]
- IC50 [1]: 50 to 200 nM
- IC50 (mTOR kinase): 50 to 200 nM

Structure (SMILES): Cc1ncccc1-c1ccc2c(N3CCOCC3)nc(-c3ccc(NC(=O)Nc4ccc(C(=O)N(C)C)cc4)cc3F)nc2c1 [Example 272, 4-(3-(3-fluoro-4-(7-(2-methylpyridin-3-yl)-4-morpholino-quinazolin-2-yl)phenyl)ureido)-N,N-dimethyl-benzamide]
- IC50 [1]: < 50 nM
- IC50 (mTOR kinase): 50 to 200 nM

Structure (SMILES): CN(C)C(=O)c1ccc(NC(=O)Nc2ccc(-c3nc(N4CCOCC4)c4ccc(-c5ccc(C(C)(C)O)o5)cc4n3)c(F)c2)cc1 [Example 276, 4-(3-(3-fluoro-4-(7-(5-(2-hydroxypropan-2-yl)furan-2-yl)-4-morpholino-quinazolin-2-yl)phenyl)ureido)-N,N-dimethyl-benzamide]
- IC50 [1]: 50 to 200 nM
- IC50 (mTOR kinase): 50 to 200 nM

Structure (SMILES): CN(C)C(=O)c1ccc(NC(=O)Nc2ccc(-c3nc(N4CCOCC4)c4ccc(-c5cnc(N(C)C)nc5)cc4n3)c(F)c2)cc1 [Example 277, 4-(3-(4-(7-(2-(dimethylamino)pyrimidin-5-yl)-4-morpholino-quinazolin-2-yl)-3-fluorophenyl)ureido)-N,N-dimethyl-benzamide]
- IC50 [1]: < 50 nM
- IC50 (mTOR kinase): < 50 nM

Structure (SMILES): CN(C)C(=O)c1ccc(NC(=O)Nc2cc(F)c(-c3nc(N4CCOCC4)c4ccc(-c5cncnc5)cc4n3)cc2F)cc1 [Example 279, 4-(3-(2,5-difluoro-4-(4-morpholino-7-(pyrimidin-5-yl)quinazolin-2-yl)phenyl)ureido)-N,N-dimethyl-benzamide]
- IC50 [1]: 50 to 200 nM
- IC50 (mTOR kinase): 50 to 200 nM

Structure (SMILES): Cc1ccc(-c2ccc3c(N4CCOCC4)nc(-c4ccc(NC(=O)Nc5ccc(C(=O)N(C)C)cc5)c(F)c4F)nc3c2)o1 [Example 281, 4-(3-(2,3-difluoro-4-(7-(5-methylfuran-2-yl)-4-morpholino-quinazolin-2-yl)phenyl)ureido)-N,N-dimethyl-benzamide]
- IC50 [1]: 201 to 10000 nM
- IC50 (mTOR kinase): 201 to 10000 nM

Structure (SMILES): CN(C)C(=O)c1ccc(NC(=O)Nc2ccc(-c3nc(N4CCOCC4)c4ccc(CN5CCC(O)CC5)cc4n3)cc2)cc1 [Example 284, 4-(3-(4-(7-((4-hydroxypiperidin-1-yl)methyl)-4-morpholino-quinazolin-2-yl)phenyl)ureido)-N,N-dimethyl-benzamide]
- IC50 [1]: 201 to 10000 nM
- IC50 (mTOR kinase): 50 to 200 nM

Structure (SMILES): CN(C)C(=O)c1ccc(NC(=O)Nc2ccc(-c3nc(N4CCOCC4)c4ccc(C(=O)N5CCC(N(C)C)CC5)cc4n3)cc2)cc1 [Example 287, 4-(3-(4-(7-(4-(dimethylamino)piperidine-1-carbonyl)-4-morpholino-quinazolin-2-yl)phenyl)ureido)-N,N-dimethyl-benzamide]
- IC50 [1]: 201 to 10000 nM
- IC50 (mTOR kinase): 201 to 10000 nM

Structure (SMILES): CN(C)[C@@H]1CCN(C(=O)c2ccc(NC(=O)Nc3ccc(-c4nc(N5CCOCC5)c5ccc(C(C)(C)O)cc5n4)cc3)cc2)C1 [Example 288, (R)-1-(4-(3-(dimethylamino)pyrrolidine-1-carbonyl)phenyl)-3-(4-(7-(2-hydroxypropan-2-yl)-4-morpholino-quinazolin-2-yl)phenyl)urea]
- IC50 [1]: 50 to 200 nM
- IC50 (mTOR kinase): < 50 nM
